These results are taken from patent publication EP0728482A2, “Use of hcp specific compounds to enhance erythropoiesis” (SMITHKLINE BEECHAM CORPORATION, priority 1995, dated 1996).

The target in the experiment is T1, human p85 SH2 domain (Homo sapiens, UniProt P27986).
T1 construct: made in house; host or cells: E. coli (pGEX-3X)
Put plainly: ELISA-based SH2 domain / pY peptide binding assay, p85 SH2 domain. Here is the method: The inhibitory activity of compounds at the different human SH2 domains was determined in vitro using SH2 domains expressed as fusion proteins in E. coli. The SH2 domains used herein were the human forms of the src SH2 domain, Grb2 SH2 domain, lck SH2 domain, fyn SH2 domain, SH-PTP2 SH2 domain, p85 SH2 domain and hcp SH2 domain.
Fusion proteins having the structure GST-X-SH2 were prepared as described in the GST gene fusion kit system available from Pharmacia (New Jersey). GST is the tagging sequence glutathione s-transferase epitope (SEQ ID NO: 8) for fyn, Grb2 and SH-PTP2 and is the tagging sequence glutathione s-transferase epitope (SEQ ID NO: 9) for p85. SH2 refers to the SH2 domains of fyn, Grb2, p85 and SH-PTP2 which were expressed and purified using glutathione Sepharose 4B (Pharmacia) according to "Current Protocols in Molecular Biology", ed. FM Ausubel et al., pub. John Wiley and Sons, Inc., (1995), p 16.7.1. X is an appropriate linker, preferably of 6 to 21 base pairs, used to keep the SH2 construct in frame and complement cloning. As such, the sequence of X is not critical. One skilled in the art can readily construct the appropriate linker. The DNA sequence encoding each GST-X-SH2 fusion protein was designed such that the indicated restriction sites (BamH1 and EcoRI) flank the SH2 region. […]
For orientation: ELISA stands for enzyme-linked immunosorbent assay.

T1 sequence (P27986 321-440): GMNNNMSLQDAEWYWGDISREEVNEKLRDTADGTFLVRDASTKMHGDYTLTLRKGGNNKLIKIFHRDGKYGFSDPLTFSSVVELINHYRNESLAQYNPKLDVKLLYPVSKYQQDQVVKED

Regarding `CCCCCCNC(=O)[C@H]1CC[C@H](CNC(=O)c2ccc(C(=O)c3ccc(C(=O)O)cc3)cc2)CC1` [Compound 6, 4-carboxy-benzophenone-4-carboxamido-trans-4-methyl-cyclohexyl-N-hexyl carboxamide], under “Ki calculated from IC50 with the expanded equation”, the Ki (in general, the equilibrium dissociation constant of an inhibitor or competing ligand from its target) was above 1000 µM. In addition, the IC50 (as a rule, the point on the concentration scale where inhibition reaches its midpoint) (inhibition of binding of 0.1 uM biotinylated pY peptide to SH2 domain fusion protein) was above 300 µM.
